Assay results: patent publication US20100105758A1 (Centre de Recherche Public de la Sante, priority 2006, published 2010)
Entries after “also recorded” stand apart in the source; their conditions may differ. Blank lines part the entries; values can stand above or below the molecule they belong to.

Legend:
[1] = test system: THP-1-derived macrophages; assay: MMP-9 secretion by THP-1-derived macrophages, gelatin zymography and densitometry; format: cell-based; conditions: for MMP-9 secretion (zymography), modulators of Ado metabolism: added alone or in combination, Ado 10 μM, EHNA 10 μM, DIP 10 μM
Experimental: Cells were incubated for 15 min with increasing concentrations of Ado and 10 μM EHNA before differentiation with 150 nM PMA for 48 hours. […] Concentrations of 10 μM Ado and 10 μM EHNA were used in further experiments. […] FIG. 2. […] THP-1 cells were treated for 15 min with Ado and 10 μM EHNA or vehicle before differentiation to macrophages with 150 nM PMA for 48 hours. EHNA, which inhibits Ado deaminase, and DIP, which inhibits Ado transport, were used to enhance endogenous Ado concentration. Gelatinase activity was measured in cell-free conditioned medium by zymography and densitometry. A. A representative zymogram is shown. […] C. Time-course experiment. […] FIG. 3. […] A. THP-1 cells were treated for 15 min with 10 μM Ado and 10 μM EHNA or vehicle before differentiation to macrophages with 150 nM PMA for 48 hours. […] B. THP-1 cells were treated for 15 min with 0.1, 1 or 10 μM of Ado receptors agonists (CPA, A1-specific; CGS21680, A2a-specific; IB-MECA, A3-specific). […] Gelatinase activity was assessed in conditioned medium. […] C. […] Cells were transfected with siRNA specific for A2a, A2b or A3 Ado receptors, incubated for 48 hours to achieve down-regulation of Ado receptors expression, treated for 15 min with 10 μM Ado and 10 μM EHNA or vehicle before differentiation to macrophages with 150 nM PMA for 48 hours. Conditioned medium was analysed by gelatin zymography. […] Cell culture. All cell culture reagents were from Lonza (Verviers, Belgium) unless specified otherwise. Peripheral venous blood was obtained from healthy volunteers. Peripheral blood mononuclear cells were obtained by Ficoll gradient. Monocytes were purified by negative selection using the Monocyte Isolation Kit II (Myltenyi Biotec GmbH, Bergisch Gladbach, Germany). […] Macrophages were incubated for 15 minutes with Ado/EHNA (10 μmol/L) or vehicle, then LPS (100 ng/ml) or vehicle was added and cells were incubated for another 24 hours before harvesting. Cells from the monocyte-like line THP-1 (ATCC, LGC Promochem, Teddington, UK) were propagated at 37° C.-5% CO2 in RPMI 1640 medium supplemented with L-glutamine (2 mM), Penicillin (100 Units/ml), Streptomycin (100 μg/ml), non-essential amino acids solution (1 μM), sodium pyruvate (1 mM), and 10% heat-inactivated fetal calf serum (FCS) (Eurobio, Les Ulys, France). For experiments, FCS in culture medium was reduced to 1%. Cells were treated for 15 min with EHNA vehicle (DMSO), Ado (0.01 to 100 μM), Ado receptors agonists (0.1 to 10 μM), EHNA (10 μM) or Dipyridamole (DIP) (10 μM). Cells were then differentiated into macrophages with 150 nM phorbol myristate actetate (PMA) for 24 hours. Macrophages were subsequently treated with LPS (1 to 1000 ng/ml), fMLP (10^−7 M) or H2O2 (10 mM) for another 24 hours. Analysis of gelatinase activity. Gelatin zymography was performed on culture supernatants to assess secreted MMP-9 activity. Briefly, conditioned medium was loaded on SDS-polyacrylamide gels containing 0.2% gelatin under non reducing conditions. After electrophoresis, gels were washed and incubated overnight at 37° C. in assay buffer (50 mM Tris-HCl, pH 7.6, 200 mM NaCl, 5 mM CaCl2, and 0.02% Brij35). Subsequently, gels were stained in 0.1% Coomassie Blue and destained in 25% ethanol/8% acetic acid. Densitometry was achieved using the Gel Logic 2200 Digital Imaging system and Aida Software (Kodak, Zavemtem, Belgium).

MMPs = conditions: given 24-72 hours post MI; cited from earlier work
THP-1 monocytes = assay: Migration assay, modified Boyden chamber coated with gelatin B, MCP-1 gradient; format: cell-based; conditions: for inhibition of Ado-enhanced cell migration: pre-incubation with TIMP-1 10 ng/mL or GM6001 10 nM or 1 μM
Experimental: Infiltration of monocytes/macrophages into the myocardium is a hallmark of ventricular remodelling post MI. Cell migration is facilitated by degradation of the ECM by MMP-9. We therefore tested whether the increase in MMP-9 secretion by Ado could improve monocytes migration along a gradient of MCP-1. For this purpose, the top of a modified Boyden chamber was coated with gelatin B and MCP-1 was added in the bottom compartment. Monocytes were treated with Ado before seeding on the microporous membrane of the chamber. […] This effect was inhibited by the synthetic MMP inhibitor GM6001 and the endogenous MMP-9 inhibitor TIMP-1 (FIG. 4).
FIG. 4. Ado increases monocytes migratory capacity. THP-1 monocytes were treated for 24 hours with 10 μM Ado and 10 μM EHNA or vehicle before seeding on the microporous membrane of a modified Boyden chamber pre-coated with gelatin B. 10 ng/mL MCP-1 was added in the bottom compartment. When specified, cells were pre-incubated with TIMP-1 (10 ng/mL) or GM6001 (10 nM or 1 μM) before seeding on the membrane. Cell migration was quantified by fluorescence after 24 hours. […] Results are mean±SD (n=5). * P<0.05 vs no Ado.
Migration assay. Migratory capacity of THP-1 monocytes was studied using a Transwell® system with polycarbonate microporous membranes (5 μm pore size, 24-well chamber, Costar, Lowell, USA). Membranes were coated with a 2% gelatin B solution and allowed to dry at room temperature for 2 hours. MCP-1 (10 ng/mL) was added in the bottom compartment. THP-1 monocytes were cultured in serum- and antibiotic-free medium with or without 10 μM Ado and 10 μM EHNA for 24 hours. Cells were pre-incubated for 30 min with GM 6001 (10 nM or 1 μM) or TIMP-1 (10 ng/mL) before seeding into the upper compartment at a concentration of 7.5×10^4 cells per well. After 24 hours, cells that migrated through the membrane were detached, lysed and stained by the CyQuant GR® dye (Invitrogen) for 15 min. Fluorescence was read with a POLARstar Optima (BMG LABTECH, Champigny-sur-Marne, France) microplate reader (Xex=492 nm, kem=520 nm).

[2] = test system: THP-1-derived macrophages; assay: MMP-9 mRNA expression in THP-1-derived macrophages, quantitative PCR; format: cell-based; conditions: THP-1 cells, after 48 hours of differentiation
Experimental: FIG. 2. […] THP-1 cells were treated for 15 min with Ado and 10 μM EHNA or vehicle before differentiation to macrophages with 150 nM PMA for 48 hours. EHNA, which inhibits Ado deaminase, and DIP, which inhibits Ado transport, were used to enhance endogenous Ado concentration. Gelatinase activity was measured in cell-free conditioned medium by zymography and densitometry. A. A representative zymogram is shown. […] C. Time-course experiment.
Cell culture. All cell culture reagents were from Lonza (Verviers, Belgium) unless specified otherwise. Peripheral venous blood was obtained from healthy volunteers. Peripheral blood mononuclear cells were obtained by Ficoll gradient. Monocytes were purified by negative selection using the Monocyte Isolation Kit II (Myltenyi Biotec GmbH, Bergisch Gladbach, Germany). […] Macrophages were incubated for 15 minutes with Ado/EHNA (10 μmol/L) or vehicle, then LPS (100 ng/ml) or vehicle was added and cells were incubated for another 24 hours before harvesting. Cells from the monocyte-like line THP-1 (ATCC, LGC Promochem, Teddington, UK) were propagated at 37° C.-5% CO2 in RPMI 1640 medium supplemented with L-glutamine (2 mM), Penicillin (100 Units/ml), Streptomycin (100 μg/ml), non-essential amino acids solution (1 μM), sodium pyruvate (1 mM), and 10% heat-inactivated fetal calf serum (FCS) (Eurobio, Les Ulys, France). […]
(§1) Real time quantitative PCR.

[3] = test system: THP-1-derived macrophages; assay: Ado receptor mRNA expression in THP-1-derived macrophages, quantitative PCR; format: cell-based; conditions: 10 μM Ado and 10 μM EHNA, PMA 48 hours
Experimental: FIG. 3. […] A. THP-1 cells were treated for 15 min with 10 μM Ado and 10 μM EHNA or vehicle before differentiation to macrophages with 150 nM PMA for 48 hours. […] B. THP-1 cells were treated for 15 min with 0.1, 1 or 10 μM of Ado receptors agonists (CPA, A1-specific; CGS21680, A2a-specific; IB-MECA, A3-specific). […] Gelatinase activity was assessed in conditioned medium. […] C. […] Cells were transfected with siRNA specific for A2a, A2b or A3 Ado receptors, incubated for 48 hours to achieve down-regulation of Ado receptors expression, treated for 15 min with 10 μM Ado and 10 μM EHNA or vehicle before differentiation to macrophages with 150 nM PMA for 48 hours. Conditioned medium was analysed by gelatin zymography.
Cell culture. All cell culture reagents were from Lonza (Verviers, Belgium) unless specified otherwise. Peripheral venous blood was obtained from healthy volunteers. Peripheral blood mononuclear cells were obtained by Ficoll gradient. Monocytes were purified by negative selection using the Monocyte Isolation Kit II (Myltenyi Biotec GmbH, Bergisch Gladbach, Germany). […] Macrophages were incubated for 15 minutes with Ado/EHNA (10 μmol/L) or vehicle, then LPS (100 ng/ml) or vehicle was added and cells were incubated for another 24 hours before harvesting. […]
as §1

[4] = test system: primary human macrophages; assay: MMP-9 secretion by primary macrophages, ELISA in conditioned medium; format: cell-based; conditions: Ado and EHNA 10 μmol/L each, 15 min then 24 hours, with or without LPS 100 ng/ml
Experimental: FIG. 1. […] Cell culture. All cell culture reagents were from Lonza (Verviers, Belgium) unless specified otherwise. Peripheral venous blood was obtained from healthy volunteers. Peripheral blood mononuclear cells were obtained by Ficoll gradient. Monocytes were purified by negative selection using the Monocyte Isolation Kit II (Myltenyi Biotec GmbH, Bergisch Gladbach, Germany). […] Macrophages were incubated for 15 minutes with Ado/EHNA (10 μmol/L) or vehicle, then LPS (100 ng/ml) or vehicle was added and cells were incubated for another 24 hours before harvesting. Cells from the monocyte-like line THP-1 (ATCC, LGC Promochem, Teddington, UK) were propagated at 37° C.-5% CO2 in RPMI 1640 medium supplemented with L-glutamine (2 mM), Penicillin (100 Units/ml), Streptomycin (100 μg/ml), non-essential amino acids solution (1 μM), sodium pyruvate (1 mM), and 10% heat-inactivated fetal calf serum (FCS) (Eurobio, Les Ulys, France). For experiments, FCS in culture medium was reduced to 1%. Cells were treated for 15 min with EHNA vehicle (DMSO), Ado (0.01 to 100 μM), Ado receptors agonists (0.1 to 10 μM), EHNA (10 μM) or Dipyridamole (DIP) (10 μM). Cells were then differentiated into macrophages with 150 nM phorbol myristate actetate (PMA) for 24 hours. Macrophages were subsequently treated with LPS (1 to 1000 ng/ml), fMLP (10^−7 M) or H2O2 (10 mM) for another 24 hours. […] ELISA.

[5] = test system: primary human macrophages; assay: MMP-9 mRNA expression in primary macrophages, quantitative PCR; format: cell-based; conditions: Ado and EHNA 10 μmol/L each, 24 hours
Experimental: Cell culture. All cell culture reagents were from Lonza (Verviers, Belgium) unless specified otherwise. Peripheral venous blood was obtained from healthy volunteers. Peripheral blood mononuclear cells were obtained by Ficoll gradient. Monocytes were purified by negative selection using the Monocyte Isolation Kit II (Myltenyi Biotec GmbH, Bergisch Gladbach, Germany). […] Macrophages were incubated for 15 minutes with Ado/EHNA (10 μmol/L) or vehicle, then LPS (100 ng/ml) or vehicle was added and cells were incubated for another 24 hours before harvesting. Cells from the monocyte-like line THP-1 (ATCC, LGC Promochem, Teddington, UK) were propagated at 37° C.-5% CO2 in RPMI 1640 medium supplemented with L-glutamine (2 mM), Penicillin (100 Units/ml), Streptomycin (100 μg/ml), non-essential amino acids solution (1 μM), sodium pyruvate (1 mM), and 10% heat-inactivated fetal calf serum (FCS) (Eurobio, Les Ulys, France). For experiments, FCS in culture medium was reduced to 1%. Cells were treated for 15 min with EHNA vehicle (DMSO), Ado (0.01 to 100 μM), Ado receptors agonists (0.1 to 10 μM), EHNA (10 μM) or Dipyridamole (DIP) (10 μM). Cells were then differentiated into macrophages with 150 nM phorbol myristate actetate (PMA) for 24 hours. Macrophages were subsequently treated with LPS (1 to 1000 ng/ml), fMLP (10^−7 M) or H2O2 (10 mM) for another 24 hours.
as §1

[6] = in combination with lidocaine or primary angioplasty; cited from earlier work
neutrophils = conditions: through A2a receptor; cited from earlier work

Molecule: CNC(=O)[C@H]1O[C@@H](n2cnc3c(NCc4cccc(I)c4)ncnc32)[C@H](O)[C@@H]1O [IB-MECA, 1-deoxy-1-[6-[[(3-iodophenyl)methyl]amino]-9H-purine-9-yl]-N-methyl-Dribofuranuronamide]
MMP-9 secretion with Ado receptor agonists ([1]; 0.1, 1 or 10 μM agonist for 15 min, EHNA omitted, PMA 48 hours): increase MMP-9 secretion to the same extent as Ado

Molecule: COc1ccc(C(=O)Nc2ccc(S(=O)(=O)NC(CC#CCN3CCOCC3)C(=O)O)cc2)cc1 (stereo not shown) [PG-116800]
outcome after MI (MMPs): did not improve outcome
prevention of LV remodelling after MI (MMPs): failed to prevent LV remodelling

Molecule: CNC(=O)[C@H](Cc1c[nH]c2ccccc12)NC(=O)[C@@H](CC(=O)NO)CC(C)C [GM6001, (R)-N-4-Hydroxy-N1-[(S)-2-(1H-indol-3-yl)-1-methylcarbamoly-ethyl]-2-isobutyl-succinamide]
inhibition of Ado-enhanced cell migration (THP-1 monocytes): partly prevented; also recorded: inhibited

Molecule: TIMP-1: recombinant human protein TIMP-1 (R&D Systems), endogenous MMP-9 inhibitor
inhibition of Ado-enhanced cell migration (THP-1 monocytes): partly prevented; also recorded: inhibited

A2b receptor expression (mRNA) [3]: more than two-fold increase
A3 receptor expression (mRNA) [3]: more than two-fold increase
Molecule: Nc1ncnc2c1ncn2[C@@H]1O[C@H](CO)[C@@H](O)[C@H]1O [adenosine]
MMP-9 mRNA expression [2]: more than two-fold increase
increase of MMP-9 production ([1]; 100 μM Ado with 10 μM EHNA, 15 min before differentiation with 150 nM PMA for 48 hours): 3 fold
MMP-9 secretion (zymography), modulators of Ado metabolism ([1]; PMA 48 hours): triggered MMP-9 secretion
incubation period necessary to reproduce the effect of Ado on MMP-9 ([1]; time-course experiment, zymography of culture medium): at least 18 hours
cell migration through the gelatin layer (THP-1 monocytes; 10 μM Ado and 10 μM EHNA for 24 hours, MCP-1 10 ng/mL, migration after 24 hours): enhanced cell migration
MMP-9 secretion in cell supernatant as measured by ELISA [4]: mild but significant increase
MMP-9 secretion in cell supernatant as measured by ELISA ([4]; listed as Ado): significantly increased
MMP-9 mRNA expression [5]: increased
cardiac function of patients with MI [6]: improved cardiac function
MMP-9 secretion by neutrophils (neutrophils): inhibits MMP-9 secretion

Molecule: OCCN(CCO)c1nc(N2CCCCC2)c2nc(N(CCO)CCO)nc(N3CCCCC3)c2n1 [DIP, Dipyridamole]
MMP-9 secretion (zymography), modulators of Ado metabolism ([1]; PMA 48 hours): triggered MMP-9 secretion

Molecule: CCCCCC[C@@H]([C@@H](C)O)n1cnc2c(N)ncnc21 (racemic) [EHNA]
MMP-9 secretion (zymography), modulators of Ado metabolism ([1]; PMA 48 hours): triggered MMP-9 secretion
